# Patent publication US6319929A, “Suksdorfin analogs, compositions thereof, and methods for making and using thereof” (priority 1998, dated 2001)
# Legend:
# [1] = system: HIV-1 replication in H9 cells; assay: Combination study of suksdorfin with AZT, ddI and ddC: HIV-1 replication in acutely infected H9 cells; type: cell-based, HIV-1 (IIIB); settings: for EC50 / IC50: Human immunodeficiency virus 1, H9; for EC50 / IC50 / Therapeutic Index: combinations with 4 μg/ml suksdorfin; for EC50: read-out: EC50; for IC50: concentration which inhibits viral replication by 50%, read-out: IC50 (μM)^b
# Procedure: HIV Growth Inhibition Assay: The T cell line, H9, and the promonocytic cell line, U937, were maintained separately in continuous culture with complete medium (RPMI 1640 and […] fetal calf serum (FCS) at 5% CO2 and 37° C. Cell lines were used in experiments only when in log phase of growth; whereas, uninfected peripheral blood mononuclear cells (PBMCs) were first stimulated with PHA (1 μg/ml) for 3 days. All cell targets were incubated with HIV-1 (IIIB isolate, TCID50 10 ^4 IU/mi, at a multiplicity of infection of 0.1-0.01 IU/cell) for 1 hour at 37° C. and 5% CO2. The cell lines and PBMCs were washed thoroughly to remove unabsorbed virions and resuspended at 4×10^5 cells/ml in complete medium or complete medium with 10% v/v interleukin […] IL-2, respectively. Aliquots ( ml) were placed in wells of 24-well culture plates containing an equal volume of test compound (diluted in the appropriate culture medium). After incubation for 4 days at 37° C., cell density of uninfected cultures was determined by counting cells in a Coulter counter to assess toxicity of the test compound. A p24 antigen ELISA assay was used to determine the level of virus released in the medium of the HIV-infected cultures. The p24 antigen assay uses a HIV-1 anti-p24 specific monoclonal antibody as the capture antibody coated-on 96-well plates. Following a sample incubation period, rabbit serum containing antibodies for HIV-1 p24 is used to tag any p24 "captured" onto the microtiter well surface. […] The cut-off for the p24 ELISA assay is 12. pg/ml. P24 in the culture medium was quantitated against a standard curve containing known amounts of p24. […] Both the EC50 and IC50 values were calculated by plotting drug concentration versus percent inhibition, and then identifying a 50% inhibition value from the graph.
# Combination Study: The experimental design is identical to the growth inhibition assay except that various concentrations of AZT, ddI or ddC were also added to cultures of acutely HIV-1 infected H9 cells that either have or have no received different concentrations of suksdorfin. The concentrations of AZT, ddI and ddC were 5 ten-fold dilutions starting at 1 μg/ml. [drawing 104] [drawing 105]
# [2] = system: HIV-1 replication in H9 cells; assay: HIV-1 replication inhibition in acutely infected H9 lymphocytes (p24 antigen ELISA); type: cell-based, HIV-1 (IIIB strain); settings: for EC50: Human immunodeficiency virus 1, H9, acutely infected H9 cells
# Procedure: (§1) HIV inhibition assay. The HIV inhibition was measured as described herein. Briefly, H9 cells, a T cell line, (3.5×10^6 cells/ml) were incubated in the presence or absence of HIV-1 (IIIB strain, 0.01-0.1 TCID50 /cell) for 1 hour at 37° C. Cells were washed thoroughly and resuspended at a final concentration of 2×10^5 cells/ml in the presence or absence of compound. After incubation for 3-4 days at 37° C., the cell density of uninfected cultures was determined by cell count to assess toxicity of the drug. An aliquot of each cell-free supernatant was assayed by p24 antigen ELISA to quantitate the amount of HIV-1 present in the infected cultures. Test compounds were considered to be active at a particular concentration if p24 antigen levels were less than 70% of infected, untreated controls and were nontoxic to uninfected H9 cells.
# (§2) HIV Growth Inhibition Assay: The T cell line, H9, and the promonocytic cell line, U937, were maintained separately in continuous culture with complete medium (RPMI 1640 and […] fetal calf serum (FCS) at 5% CO2 and 37° C. Cell lines were used in experiments only when in log phase of growth; whereas, uninfected peripheral blood mononuclear cells (PBMCs) were first stimulated with PHA (1 μg/ml) for 3 days. All cell targets were incubated with HIV-1 (IIIB isolate, TCID50 10 ^4 IU/mi, at a multiplicity of infection of 0.1-0.01 IU/cell) for 1 hour at 37° C. and 5% CO2. The cell lines and PBMCs were washed thoroughly to remove unabsorbed virions and resuspended at 4×10^5 cells/ml in complete medium or complete medium with 10% v/v interleukin […] IL-2, respectively. Aliquots ( ml) were placed in wells of 24-well culture plates containing an equal volume of test compound (diluted in the appropriate culture medium). After incubation for 4 days at 37° C., cell density of uninfected cultures was determined by counting cells in a Coulter counter to assess toxicity of the test compound. A p24 antigen ELISA assay was used to determine the level of virus released in the medium of the HIV-infected cultures. The p24 antigen assay uses a HIV-1 anti-p24 specific monoclonal antibody as the capture antibody coated-on 96-well plates. Following a sample incubation period, rabbit serum containing antibodies for HIV-1 p24 is used to tag any p24 "captured" onto the microtiter well surface. Peroxidase conjugated goat anti-rabbit serum is then used to tag HIV-1 p24 specific rabbit antibodies which have complexed with captured p24. […] The cut-off for the p24 ELISA assay is 12. pg/ml. P24 in the culture medium was quantitated against a standard curve containing known amounts of p24. The effective (EC50) and inhibitory (IC50) concentrations (for anti-HIV activity and cytotoxicity, respectively) were determined graphically. Both the EC50 and IC50 values were calculated by plotting drug concentration versus percent inhibition, and then identifying a 50% inhibition value from the graph.
# uninfected H9 cells [3] = assay: Combination study of suksdorfin with AZT, ddI and ddC: toxicity to uninfected H9 cells; type: cell-based; settings: Homo sapiens, H9, combinations with 4 μg/ml suksdorfin
# Procedure: Pharm. Asso. […] Aliquots ( ml) were placed in wells of 24-well culture plates containing an equal volume of test compound (diluted in the appropriate culture medium). After incubation for 4 days at 37° C., cell density of uninfected cultures was determined by counting cells in a Coulter counter to assess toxicity of the test compound. A p24 antigen ELISA assay was used to determine the level of virus released in the medium of the HIV-infected cultures. The p24 antigen assay uses a HIV-1 anti-p24 specific monoclonal antibody as the capture antibody coated-on 96-well plates. Following a sample incubation period, rabbit serum containing antibodies for HIV-1 p24 is used to tag any p24 "captured" onto the microtiter well surface. […] The cut-off for the p24 ELISA assay is 12. pg/ml. P24 in the culture medium was quantitated against a standard curve containing known amounts of p24. The effective (EC50) and inhibitory (IC50) concentrations (for anti-HIV activity and cytotoxicity, respectively) were determined graphically.
# Combination Study: The experimental design is identical to the growth inhibition assay except that various concentrations of AZT, ddI or ddC were also added to cultures of acutely HIV-1 infected H9 cells that either have or have no received different concentrations of suksdorfin.
# uninfected H9 cells [4] = assay: Toxicity to uninfected H9 cells (cell growth); type: cell-based; settings: Homo sapiens
# Procedure: as §1, §2
# [5] = IC50 for cell growth inhibition divided by EC50 for HIV inhibition, H9
# [6] = Table 16, concentration which inhibits uninfected cell growth by 50%, read-out: IC50 (μM)^a
"EC50 ([2]; concentration which inhibits viral replication by 50%, Inactive = No suppression of HIV-1 replication in H9 cells, read-out: EC50)","IC50 ([2]; Human immunodeficiency virus 1, Table 14, concentration which inhibits viral replication by 50%, Inactive = No suppression of HIV-1 replication in H9 cells, read-out: IC50 (μM)^b)",SMILES,EC50 ([1]; Table 5),IC50 ([1]; Table 16),Therapeutic Index ([1]; Table 5),Therapeutic Index ([1]; Table 16),"decrease of EC50 in presence of suksdorfin ([1]; with 4 μg/ml suksdorfin, H9)","reduction of amount of nucleoside needed in presence of suksdorfin ([1]; with 4 μg/ml suksdorfin, H9)","Therapeutic Index [2, 5]","IC50 (uninfected H9 cells [3]; Table 5, read-out: IC50)",IC50 (uninfected H9 cells [3]; [6]),"IC50 (uninfected H9 cells [4]; H9, Table 14, concentration which inhibits uninfected cell growth by 50%, read-out: IC50 (μM)^a)","IC50 (uninfected H9 cells [4]; H9, concentration which inhibits uninfected cell growth by 50%, read-out: IC50)",Therapeutic Index ([2]; Table 14),"IC50 (uninfected H9 cells [4]; H9, concentration which inhibits uninfected cell growth by 50%)","IC50 (uninfected H9 cells [4]; H9, read-out: IC50 (μM)^a, Table 14, concentration which inhibits uninfected cell growth by 50%)","EC50 ([2]; concentration which inhibits viral replication by 50%, Inactive = No suppression of HIV-1 replication in H9 cells)","IC50 ([2]; Human immunodeficiency virus 1, H9, read-out: IC50 (μM)^b)"
,,O=c1[nH]cnc2c1ncn2[C@H]1CC[C@@H](CO)O1 [ddI],0.4 µg/mL,0.4 µg/mL,> 2.5,> 2.5,4000 fold,4000 fold,> 400,> 1 µg/mL,> 1 µg/mL,,,,,,,
,,"Nc1ccn([C@H]2CC[C@@H](CO)O2)c(=O)n1 [ddC, dideoxycytidine]",0.004 µg/mL,0.004 µg/mL,> 250,> 250,40 fold,,,> 1 µg/mL,> 1 µg/mL,,,,,,,
4.6 µM,4.6 µM,"C/C=C(/C)C(=O)OC(C)(C)[C@@H]1Cc2c(ccc3ccc(=O)oc23)O1 [Columbianadin, columbianadin, reference compound]",,,,,,,> 1.3,,,> 6.1 µM,> 6.1 µM,> 1.3,,,,
,,"CC(C)=CCOc1c2occc2cc2ccc(=O)oc12 [Imperatorin, imperatorin, reference compound]",,,,,,,> 6.7,,,,,> 6.7,> 74.1 µM,> 74.1 µM,11.1 µM,11.1 µM
